Assay results: US20260256756A1, “USE OF PIPERIDINE ALKENE COMPOUND IN PREPARATION OF DRUG FOR TREATING CANCER” (JIANGSU HANSOH PHARMACEUTICAL GROUP CO., LTD., priority 2023, published 2026)

Assays:
OVCAR-3 cells = assay: In vitro proliferation inhibition (CellTiter-Glo), OVCAR-3; assay type: cell-based; details: Homo sapiens; OVCAR-3, ovarian cancer; 6-10 days culture
Description: […]
(§1) Experimental data processing method: The luminescence signal value was used to calculate the inhibition rate. […]

CAOV-3 cells = assay: In vitro proliferation inhibition (CellTiter-Glo), CAOV-3; assay type: cell-based; details: Homo sapiens; CAOV-3, ovarian cancer, HRD-positive (low expression of ATM protein); 6-10 days culture
Description: […]
as §1

MX-1 cells = assay: In vitro proliferation inhibition (CellTiter-Glo), MX-1; assay type: cell-based; details: Homo sapiens, MX1; MX-1, triple-negative breast cancer, BRCA1 mutation; 6-10 days culture
Description: […]
as §1

PSN-1 cells = assay: In vitro proliferation inhibition (CellTiter-Glo), PSN-1; assay type: cell-based; details: Homo sapiens, PSN1; PSN-1, pancreatic cancer, HRD-positive (low expression of MRE11A/CHEK2 protein); 6-10 days culture
Description: […]
as §1

[1] = system: human pancreatic cancer cell line Capan-1 xenograft tumor; assay: Subcutaneous xenograft tumor model of human pancreatic cancer cell line Capan-1; assay type: in vivo, BALB/c nude mice; details: Capan-1, 100 mg/kg oral once/day
Description: • 1. Experimental objective: To evaluate the in vivo efficacy of compound 1 in a subcutaneous xenograft tumor model of human pancreatic cancer cell line Capan-1 in nude mice. • 2. Reagent • IMDM medium (30-2005, ATCC) and fetal bovine serum (FBS) (35-081-CV, Corning) • DPBS (21-031-CVR, Corning) and Matrigel (354234, Corning) • HPMC (H02J10D78204, Shanghai Yuanye Bio-Technology Co., Ltd.) • Trypsin-EDTA (25200-072, Gibco), penicillin and streptomycin (MA0110, Dalian Meilun Biotechnology Co., Ltd.) • 3. Experimental operations and data processing • 3.1 Animals: • BALB/c nude mice, 6-8 weeks old, female, purchased from Jiangsu GemPharmatech Co., Ltd. • 3.2 Cell culture and cell suspension preparation • a. A vial of Capan-1 cells was taken from a cell bank, the cells were thawed with IMDM medium (IMDM+20% FBS), and the thawed cells were placed in a cell culture flask (with the cell type, date, the name of the culture operator, etc., being marked on the wall of the flask), which were placed in a CO2 incubator for culturing (wherein the temperature of the incubator was 37° C., and the CO2 concentration was 5%). • b. The cells were passaged once a week, and after passage, the cells were placed in the CO2 incubator to continue the culture. This process was repeated until the cell number met the requirements for in vivo efficacy. • c. The cultured cells were collected, counted using a full-automatic cell counter, and resuspended with PBS on the basis of the counting results to prepare a cell suspension (at a density of 5×10^7/mL). An equal volume of Matrigel was added to the cell suspension, and the resulting mixture was mixed uniformly and then placed in an ice box for later use. • 3.3 Cell inoculation • a. Before inoculation, the nude mice were marked with disposable universal ear tags for mice and rats. • b. At the time of inoculation, the cell suspension was mixed uniformly, 0.2-1 mL of the cell suspension was aspirated using a 1 mL syringe with air bubbles expelled, and the syringe was then placed on an ice bag for later use. • c. […] Tumor was measured on days 4-7 after inoculation depending on the tumor growth, and the tumor size was calculated.
tumor volume (mm^3)=length (mm)×width (mm)×width (mm)/2 Tumor volume calculation: • b. […] The tumor inhibitory efficacy of the compound was evaluated by TGI (%) and ΔT/ΔC (%). ΔT/ΔC (%)=(T−T0)/(C−C0)×100, where T and C are the tumor volumes of the treatment group and the vehicle control group at the end of the experiment, respectively, and T0 and C0 are the tumor volumes of the treatment group and the vehicle control group at the beginning of the experiment, respectively. […]

| IC50 (OVCAR-3 cells) [nM] | Structure (SMILES) | IC50 (CAOV-3 cells) [nM] | IC50 (MX-1 cells) [nM] | IC50 (PSN-1 cells) [nM] | Tumor volume (Mean ± SEM) ([1]; Day 0) [mm^3] | T/C ([1]; Day 28) [%] | TGI ([1]; Day 28) [%] | Tumor volume (Mean ± SEM) ([1]; Day 28) [mm^3] |
| --- | --- | --- | --- | --- | --- | --- | --- | --- |
| 5.1 ± 1.4 | CCc1cc2ncc(CN3CCN(c4ccc(C(=O)NC)nc4)CC3)cc2[nH]c1=O [AZD5305] | 4 ± 0.8 | 4.1 ± 1.6 | 2.1 ± 0.5 | – | – | – | – |
| 319 ± 47 | O=C(c1cc(Cc2n[nH]c(=O)c3ccccc23)ccc1F)N1CCN(C(=O)C2CC2)CC1 [Olaparib] | 151 ± 18 | 246 ± 104 | 65 ± 19 | 164 ± 13 | 86.27 | 14.39 | 724 ± 82 |
